Test results published in patent US11028095B2, “Spiro-lactam and bis-spiro-lactam NMDA receptor modulators and uses thereof” (Aptinyx Inc., priority 2016, dated 2021).

Experiments:
[1] = target: T1, NMDAR2A expressing HEK cell membranes (Homo sapiens, UniProt Q05586+Q12879); assay: NMDAR agonist assay, [3H]MK-801 binding, NMDAR2A; assay type: biochemical; conditions: 50 μM glutamate; for Emax: relative to 1 mM glycine, read-out: NMDAR2A: % maximal [3H]MK-801 binding relative to 1 mM glycine; for EC50: [3H]MK-801 binding, read-out: NMDAR2A: log EC50 (converted)
T1 construct: expressed in transfected cells; host or cells: HEK cells (membrane extract)
Description: (§1) (nonequilibrium conditions).
(§2) The baseline value was determined from the best fit curve of the DPM values modeled using the GraphPad program and the log(agonist) vs. response(three parameters) algorithm was then subtracted from all points in the dataset.

[2] = target: T2, NMDAR2D expressing HEK cell membranes (Homo sapiens, UniProt O15399+Q05586); assay: NMDAR agonist assay, [3H]MK-801 binding, NMDAR2D; assay type: biochemical; conditions: 50 μM glutamate; for EC50: [3H]MK-801 binding, read-out: NMDAR2D: log EC50 (converted); for Emax: relative to 1 mM glycine, read-out: NMDAR2D: % maximal [3H]MK-801 binding relative to 1 mM glycine
T2 construct: expressed in transfected cells; host or cells: HEK cells (membrane extract)
Description: as §1, §2

[3] = target: T3, NMDAR2B expressing HEK cell membranes (Homo sapiens, UniProt Q13224); assay: NMDAR agonist assay, [3H]MK-801 binding, NMDAR2B; assay type: biochemical; conditions: 50 μM glutamate; relative to 1 mM glycine
T3 construct: expressed in transfected cells; host or cells: HEK cells (membrane extract)
Description: as §1, §2

[4] = target: T4, NMDAR2B expressing HEK cell membranes (Homo sapiens, UniProt Q05586+Q13224); assay: NMDAR agonist assay, [3H]MK-801 binding, NMDAR2B; assay type: biochemical; conditions: 50 μM glutamate; for EC50: [3H]MK-801 binding, read-out: NMDAR2B log EC50 (converted)
T4 construct: expressed in transfected cells; host or cells: HEK cells (membrane extract)
Description: as §1, §2

[5] = target: T5, NMDAR2A expressing HEK cell membranes (Homo sapiens, UniProt Q12879); assay: NMDAR agonist assay, [3H]MK-801 binding, NMDAR2A; assay type: biochemical; conditions: 50 μM glutamate; relative to 1 mM glycine
T5 construct: expressed in transfected cells; host or cells: HEK cells (membrane extract)
Description: as §1, §2

[6] = Oral pharmacokinetics (plasma, brain, CSF); assay type: in vivo; conditions: Sprague Dawley rats, per os, 10 mg/kg
Description: In another experiment, Sprague Dawley rats were dosed per os using a normal saline formulation containing 10 mg/kg of the compounds identified in the table below. Plasma, brain, and CSF samples were analyzed at various time points over a 24 hour period. The table below summarizes the results of the oral pharmacokinetics.

[7] = Microsomal stability (Human); assay type: in vitro ADME; conditions: human microsomes
Description: (§3) Microsomal stability of disclosed compounds was investigated. The following table indicates the percent of compound remaining after 60 minutes.

Plasma stability (Rat) = assay type: in vitro ADME
Description: (§4) Plasma stability of disclosed compounds was investigated. The following table indicates the percent of compound remaining after 60 minutes.

IV pharmacokinetics = assay type: in vivo; conditions: Sprague Dawley, rat, in vivo, iv, 2 mg/kg, Sprague Dawley rats, normal saline
Description: Sprague Dawley rats were dosed intravenously using a normal saline formulation containing 2 mg/kg of the compounds identified in the below table. The table below summarizes the results of the IV pharmacokinetics.

[8] = Microsomal stability (Rat); assay type: in vitro ADME; conditions: rat microsomes
Description: as §3

Plasma stability (Human) = assay type: in vitro ADME
Description: as §4

[9] = test system: positive (hedonic) 50-kHz ultrasonic vocalizations (USVs); assay: Positive Emotional Learning (PEL) test; assay type: in vivo; conditions: rat, PO, dose 0.1 mg/kg, one hour after administration
Description: Experiments were conducted as described in Burgdorf et al., “The effect of selective breeding for differential rates of 50-kHz ultrasonic vocalizations on emotional behavior in rats,” Devel. […] Rat 50-kHz ultrasonic vocalization (hedonic USVs) is a validated model for the study of positive affective state and is best elicited by rough-and-tumble play.
The PEL assay measures the acquisition of positive (hedonic) 50-kHz ultrasonic vocalizations (USVs) to a social stimulus, heterospecific rough and tumble play stimulation. Heterospecific rough-and-tumble play stimulation was administered by the experimenter's right hand. One hour after administration of test compound or vehicle negative control (0.5% sodium carboxymethyl cellulose in 0.9% sterile saline vehicle), animals received 3 min of heterospecific rough-and-tumble play that consisted of alternating 15 sec blocks of heterospecific play and 15 sec of no-stimulation. […] Frequency modulated 50-kHz USVs that occurred during each of the no-stimulation periods were quantified to measure PEL. Animals were not habituated to play stimulation before testing. Positive emotional learning was measured during the conditioned stimulus (CS) trials preceding the tickle unconditioned stimulus (UCS) trials. Animals received 15 second trials consisting of 6 CS and 6 UCS trials each (3 min total).

[10] = Sprague Dawley, rat, plasma, po

T1 sequence (Q12879 23-1464, other chains not shown): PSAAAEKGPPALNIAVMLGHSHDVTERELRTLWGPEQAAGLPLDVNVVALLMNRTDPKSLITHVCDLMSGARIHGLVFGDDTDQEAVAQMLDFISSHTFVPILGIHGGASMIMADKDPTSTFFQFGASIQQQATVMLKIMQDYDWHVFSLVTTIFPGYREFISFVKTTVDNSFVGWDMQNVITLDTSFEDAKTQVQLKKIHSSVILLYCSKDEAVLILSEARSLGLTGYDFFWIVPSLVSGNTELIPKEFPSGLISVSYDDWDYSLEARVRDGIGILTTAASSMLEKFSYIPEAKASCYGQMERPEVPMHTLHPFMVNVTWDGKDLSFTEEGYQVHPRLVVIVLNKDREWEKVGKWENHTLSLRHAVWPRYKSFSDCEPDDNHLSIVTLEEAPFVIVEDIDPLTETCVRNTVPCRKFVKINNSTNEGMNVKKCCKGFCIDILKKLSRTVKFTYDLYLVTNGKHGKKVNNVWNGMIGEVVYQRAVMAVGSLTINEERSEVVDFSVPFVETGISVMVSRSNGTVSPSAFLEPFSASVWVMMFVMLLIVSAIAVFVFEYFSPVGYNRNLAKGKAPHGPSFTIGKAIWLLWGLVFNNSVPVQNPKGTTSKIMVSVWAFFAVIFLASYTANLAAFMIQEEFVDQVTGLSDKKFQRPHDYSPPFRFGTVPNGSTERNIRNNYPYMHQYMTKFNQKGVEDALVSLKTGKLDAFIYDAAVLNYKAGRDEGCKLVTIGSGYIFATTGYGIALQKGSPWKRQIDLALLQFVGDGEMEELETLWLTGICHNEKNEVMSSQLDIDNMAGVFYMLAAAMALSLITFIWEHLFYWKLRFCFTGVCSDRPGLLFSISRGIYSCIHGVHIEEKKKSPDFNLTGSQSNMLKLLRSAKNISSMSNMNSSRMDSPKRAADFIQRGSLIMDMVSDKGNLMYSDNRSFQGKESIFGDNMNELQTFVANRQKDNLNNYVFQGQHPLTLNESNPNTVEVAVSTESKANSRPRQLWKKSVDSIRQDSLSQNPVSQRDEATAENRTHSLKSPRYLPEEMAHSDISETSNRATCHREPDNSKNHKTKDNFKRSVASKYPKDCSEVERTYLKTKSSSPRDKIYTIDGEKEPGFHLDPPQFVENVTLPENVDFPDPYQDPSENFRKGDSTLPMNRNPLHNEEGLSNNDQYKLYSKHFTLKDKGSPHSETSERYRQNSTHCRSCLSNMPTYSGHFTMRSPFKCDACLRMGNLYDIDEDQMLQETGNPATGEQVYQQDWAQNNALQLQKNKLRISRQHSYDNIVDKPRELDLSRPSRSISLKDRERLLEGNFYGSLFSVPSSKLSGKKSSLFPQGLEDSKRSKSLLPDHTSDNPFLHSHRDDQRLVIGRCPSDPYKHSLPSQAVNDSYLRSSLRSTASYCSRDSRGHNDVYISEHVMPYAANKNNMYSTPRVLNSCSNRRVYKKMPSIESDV
T5 sequence (Q12879 23-1464, other chains not shown): as above
T2 sequence (O15399 28-1336, other chains not shown): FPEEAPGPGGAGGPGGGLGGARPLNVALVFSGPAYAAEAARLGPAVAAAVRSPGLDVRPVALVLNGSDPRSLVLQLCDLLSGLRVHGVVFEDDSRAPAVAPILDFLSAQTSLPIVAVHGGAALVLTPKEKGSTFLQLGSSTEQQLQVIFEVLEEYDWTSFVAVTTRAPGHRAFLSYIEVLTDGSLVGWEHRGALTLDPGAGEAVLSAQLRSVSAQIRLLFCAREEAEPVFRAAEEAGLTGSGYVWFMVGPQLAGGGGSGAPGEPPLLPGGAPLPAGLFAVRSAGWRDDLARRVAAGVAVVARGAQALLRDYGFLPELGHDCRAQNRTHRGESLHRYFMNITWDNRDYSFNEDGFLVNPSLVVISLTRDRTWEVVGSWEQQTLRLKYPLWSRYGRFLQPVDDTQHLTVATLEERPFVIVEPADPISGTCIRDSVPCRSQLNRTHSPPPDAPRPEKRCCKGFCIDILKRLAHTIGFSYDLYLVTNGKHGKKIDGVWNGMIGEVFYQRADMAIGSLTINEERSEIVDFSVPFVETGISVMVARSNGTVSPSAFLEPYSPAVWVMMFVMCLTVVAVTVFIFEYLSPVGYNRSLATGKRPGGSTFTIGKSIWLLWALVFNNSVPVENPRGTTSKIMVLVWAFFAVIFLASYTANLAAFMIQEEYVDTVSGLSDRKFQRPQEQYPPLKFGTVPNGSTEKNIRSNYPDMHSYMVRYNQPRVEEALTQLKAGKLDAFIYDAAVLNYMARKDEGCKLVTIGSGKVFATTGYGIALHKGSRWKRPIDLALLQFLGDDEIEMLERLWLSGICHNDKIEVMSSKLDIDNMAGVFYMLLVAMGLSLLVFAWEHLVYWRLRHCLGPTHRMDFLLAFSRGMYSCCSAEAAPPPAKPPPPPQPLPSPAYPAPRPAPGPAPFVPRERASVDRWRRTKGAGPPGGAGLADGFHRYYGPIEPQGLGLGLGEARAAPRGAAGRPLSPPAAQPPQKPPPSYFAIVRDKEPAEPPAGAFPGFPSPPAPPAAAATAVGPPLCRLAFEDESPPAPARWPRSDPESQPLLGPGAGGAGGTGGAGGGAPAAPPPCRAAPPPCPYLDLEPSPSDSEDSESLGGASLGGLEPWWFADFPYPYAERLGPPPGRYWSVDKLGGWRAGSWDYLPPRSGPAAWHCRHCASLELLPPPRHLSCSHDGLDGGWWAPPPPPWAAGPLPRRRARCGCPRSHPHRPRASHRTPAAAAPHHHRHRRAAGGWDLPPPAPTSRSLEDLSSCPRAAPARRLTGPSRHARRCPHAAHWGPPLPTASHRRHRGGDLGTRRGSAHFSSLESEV

| Emax [1] | EC50 [2] | Emax [2] | NMDAR2B: % maximal [3H]MK-801 binding relative to 1 mM glycine [3] | EC50 [4] | EC50 [1] | NMDAR2A: % maximal [3H]MK-801 binding relative to 1 mM glycine [5] | Structure (SMILES) | other results |
| --- | --- | --- | --- | --- | --- | --- | --- | --- |
| < 100% | < 1 nM | < 100% | − (−=0) | > 100 nM | – | – | CC(C)(C)OC(=O)N1C(C(N)=O)CCC12CNC2=O (single isomer, unassigned) [BE] | – |
| < 100% | < 1 nM | < 100% | − (−=0) | > 100 nM | < 1 nM | – | CC(C)CN1C(C(=O)N[C@H](C(N)=O)[C@@H](C)O)CCC12CNC2=O (single isomer, unassigned) [BA] | – |
| – | – | – | + (<100%=+) | < 1 nM | > 100 nM | − (−=0) | C[C@@H](O)[C@H](NCC1CCC2(CNC2=O)N1C(=O)OC(C)(C)C)C(=O)N(C)C (single isomer, unassigned) [BS] | – |
| – | – | – | + (<100%=+) | < 1 nM | > 100 nM | − (−=0) | CC(C)(C)OC(=O)N1CC2(CN(OCc3ccccc3)C2=O)CC12CN(OCc1ccccc1)C2=O (single isomer, unassigned) [AV, tert-butyl 2,8-bis(benzyloxy)-1,7-dioxo-2,8,10-triazadispiro[3.1.36.24]undecane-10-carboxylate] | – |
| 0% | – | – | – | < 1 nM | > 100 nM | – | CC(=O)N1C(C(=O)N[C@H](C(N)=O)[C@@H](C)O)CCC12CNC2=O (stereo partly drawn) [AO, 5-acetyl-N-((2S,3R)-1-amino-3-hydroxy-1-oxobutan-2-yl)-1-oxo-2,5-diazaspiro[3.4]octane-6-carboxamide] | CSF Cmax ([6]; CSF): 17.89 ng/mL; Brain Cmax ([6]; brain): 0 ng/mL; AUC(0-t) [6, 10]: 1320 ng·h/mL; bioavailability [6, 10]: 6%; Tmax ([6]; Sprague Dawley, rat, plasma, po, normal saline, read-out: Tmax): 2.67 h; Cmax ([6]; Sprague Dawley, rat, plasma, po, plasma, read-out: Cmax): 247 ng/mL; Microsomal (Human): percent of compound remaining after 60 minutes [7]: 100%; Plasma (Rat): percent of compound remaining after 60 minutes (Plasma stability (Rat)): 93%; AUC(0-t) (IV pharmacokinetics): 4430 ng·h/mL; clearance (IV pharmacokinetics): 7.59 mL/min/kg; half-life (IV pharmacokinetics): 130 min; C0 (IV pharmacokinetics; read-out: C0): 11900 ng/mL; Vd (IV pharmacokinetics; read-out: Vss): 0.22 L/kg; Microsomal (Rat): percent of compound remaining after 60 minutes [8]: 100%; Emax ([4]; relative to 1 mM glycine, read-out: NMDAR2B: % maximal [3H]MK-801 binding relative to 1 mM glycine): < 100%; Plasma (Human): percent of compound remaining after 60 minutes (Plasma stability (Human)): 100%; Max Effect (mean number of 50 kHz USVs per 15 seconds) [9]: ** (**: 11-16.9) |
| – | – | – | ++ (>100%=++) | < 1 nM | < 1 nM | + (<100%=+) | O=C1NCC12CN(Cc1ccccc1)C1(CNC1=O)C2 (single isomer, unassigned) [DP, 10-benzyl-2,8,10-triazadispiro[3.1.3^6.2^4]undecane-1,7-dione] | – |
